Results taken from ChEMBL document CHEMBL5579815, “Novel angiogenesis inhibitors with superoxide anion radical amplification effect: Surmounting the Achilles' heels of angiogenesis inhibitors and photosensitizers” (Eur J Med Chem, 2024).
The source made the active and inactive calls. The calls are words filed in the database; no cut-off is given here.

Key:
[1] = Induction of ROS generation in methanol solution assessed as increase in superoxide anion radical level by measuring increase in DHR123 fluorescence intensity at 10 uM irradiated with 650 nm 10 mW/cm2 light for upto 15 mins by DHR123 probe based fluorescence spectra analysis; format: functional
[2] = Induction of ROS generation in methanol solution assessed as reduction in DPBF absorption peak at 10 uM irradiated with 650 nm 10 mW/cm2 light for upto 9 mins by DPBF probe based UV-vis absorption spectra analysis; format: functional
[3] = Induction of ROS generation in methanol solution assessed as increase in singlet oxygen level by measuring reduction in ABDA absorption peak at 10 uM irradiated with 650 nm 10 mW/cm2 light for upto 9 mins by ABDA probe based UV-vis absorption spectra analysis; format: functional
SK-MEL-28 [4] = test: (§1) Cytotoxicity against human SK-MEL-28 cells assessed as reduction in cell viability at 0.008 to 1 uM preincubated for 24 hrs under normoxic condition followed by media removal and irradiated with 650 nm 10 mW/cm2 light for 15 mins under normoxic condition prior to media replacement and measured after 24 hrs by MTT assay; format: functional, cell-based; conditions: dose 0.008-1 µM
SK-MEL-28 [5] = test: as §1, with “hypoxic” for “normoxic”; format: functional, cell-based; conditions: dose 0.008-1 µM
SK-MEL-28 [6] = test: as §1, with “viability” for “viability at 0.008 to 1 uM”; format: functional, cell-based; conditions: SK-MEL-28, light or radiation study
SK-MEL-28 [7] = test: as §1, with “viability” for “viability at 0.008 to 1 uM”, “hypoxic” for “normoxic”; format: functional, cell-based; conditions: SK-MEL-28, light or radiation study
SK-MEL-28 [8] = test: Cytotoxicity against human SK-MEL-28 cells assessed as reduction in cell viability by MTT assay; format: functional, cell-based

Q: What does the source list for `CCN(CC)c1ccc2nc3c4ccccc4/c(=N\CCCCCCN=[N+]=[N-])cc-3sc2c1`?
A: Activity [1]: Active; Activity [2]: Active; Activity [3]: inactive

Q: Which results are given for `CCN(CC)c1ccc2nc3c4ccccc4/c(=N\CCCCCCn4cc(CCCCNC(=O)c5cc(Oc6ccc(NC(=O)Nc7ccc(Cl)c(C(F)(F)F)c7)cc6)ccn5)nn4)cc-3sc2c1`?
A: Activity [1]: Active; Activity [2]: Active; Activity [3]: inactive; Activity (SK-MEL-28 [4]): Active; Activity (SK-MEL-28 [5]): Active

Q: With `CCN(CC)c1ccc2nc3c4ccccc4/c(=N\CCCCCC(=O)O)cc-3sc2c1` as the molecule, how does the Activity [1] read?
A: The Activity was “Active”.

Q: And the Activity [2]?
A: Its Activity is “Active”.

Q: What about the Activity [3] of the same molecule?
A: Its Activity is “inactive”.

Q: For `CCN(CC)c1ccc2nc3c4ccccc4/c(=N\CCCCCCn4cc(CCNC(=O)c5cc(Oc6ccc(NC(=O)Nc7ccc(Cl)c(C(F)(F)F)c7)cc6)ccn5)nn4)cc-3sc2c1`, which Activity [1] is on record?
A: Its Activity is “Active”.

Q: What about the Activity [2] of the same molecule?
A: The Activity was “Active”.

Q: What about the Activity [3] of the same molecule?
A: Its Activity is “inactive”.

Q: And the Activity (SK-MEL-28 [4])?
A: The Activity was “Active”.

Q: And the Activity (SK-MEL-28 [5])?
A: The Activity was “Active”.

Q: With `CCN(CC)c1ccc2nc3c4ccccc4/c(=N\CCCCCCn4cc(CCCC(=O)Nc5cccc(-c6cn(Cc7ccc(-c8ccc(OC)nc8)cc7)nn6)c5)nn4)cc-3sc2c1` as the molecule, how does the Activity [1] read?
A: Its Activity is “Active”.

Q: And the Activity [2]?
A: The Activity was “Active”.

Q: And the Activity [3]?
A: Its Activity is “inactive”.

Q: Which Activity [1] does the source give for `CCN(CC)c1ccc2nc3c4ccccc4/c(=N\CCCCCCNC(=O)CCC(=O)Nc4cccc(-c5cn(Cc6ccc(-c7ccc(OC)nc7)cc6)nn5)c4)cc-3sc2c1` here?
A: The Activity was “Active”.

Q: What about the Activity [2] of the same molecule?
A: Its Activity is “Active”.

Q: What about the Activity [3] of the same molecule?
A: Its Activity is “inactive”.

Q: With `CCN(CC)c1ccc2nc3c4ccccc4/c(=N\CCCCCCn4cc(CCC(=O)Nc5cccc(-c6cn(Cc7ccc(-c8ccc(OC)nc8)cc7)nn6)c5)nn4)cc-3sc2c1` as the molecule, how does the Activity [1] read?
A: The Activity was “Active”.

Q: And the Activity [2]?
A: Its Activity is “Active”.

Q: And the Activity [3]?
A: Its Activity is “inactive”.

Q: With `CCN(CC)c1ccc2nc3c4ccccc4/c(=N\CCCCCCN)cc-3sc2c1` as the molecule, how does the IC50 (SK-MEL-28 [6]) read?
A: Its IC50 is 14.2 µM.

Q: What about the Activity [1] of the same molecule?
A: Its Activity is “Active”.

Q: What about the Activity [2] of the same molecule?
A: Its Activity is “Active”.

Q: And the Activity [3]?
A: Its Activity is “inactive”.

Q: What about the IC50 (SK-MEL-28 [7]) of the same molecule?
A: Its IC50 is greater than 20 µM.

Q: With `CNC(=O)c1cc(Oc2ccc(NC(=O)Nc3ccc(Cl)c(C(F)(F)F)c3)cc2)ccn1` [SORAFENIB] as the molecule, how does the IC50 (SK-MEL-28 [8]) read?
A: Its IC50 is 9.49 µM.

Q: With `CCN(CC)c1ccc2nc3c4ccccc4/c(=N\CCCCCCn4cc(CNC(=O)c5cc(Oc6ccc(NC(=O)Nc7ccc(Cl)c(C(F)(F)F)c7)cc6)ccn5)nn4)cc-3sc2c1` as the molecule, how does the Activity [1] read?
A: Its Activity is “Active”.

Q: What about the Activity [2] of the same molecule?
A: Its Activity is “Active”.

Q: What about the Activity [3] of the same molecule?
A: The Activity was “inactive”.

Q: And the Activity (SK-MEL-28 [4])?
A: The Activity was “Active”.

Q: What about the Activity (SK-MEL-28 [5]) of the same molecule?
A: The Activity was “Active”.

Q: Which results are given for `CCN(CC)c1ccc2nc3c4ccccc4/c(=N\CCCCCC(=O)Nc4cccc(-c5cn(Cc6ccc(-c7ccc(OC)nc7)cc6)nn5)c4)cc-3sc2c1`?
A: Activity [1]: Active; Activity [2]: Active; Activity [3]: inactive

Q: Which Activity [1] does the source give for `CCN(CC)c1ccc2nc3c4ccccc4/c(=N\CCCCCCNC(=O)CC(=O)Nc4cccc(-c5cn(Cc6ccc(-c7ccc(OC)nc7)cc6)nn5)c4)cc-3sc2c1` here?
A: The Activity was “Active”.

Q: And the Activity [2]?
A: Its Activity is “Active”.

Q: What about the Activity [3] of the same molecule?
A: Its Activity is “inactive”.

Q: Which Activity [1] does the source give for `CCN(CC)c1ccc2nc3c4ccccc4/c(=N\CCCCCC(=O)NCCCNC(=O)c4cc(Oc5ccc(NC(=O)Nc6ccc(Cl)c(C(F)(F)F)c6)cc5)ccn4)cc-3sc2c1` here?
A: Its Activity is “Active”.

Q: What about the Activity [2] of the same molecule?
A: Its Activity is “Active”.

Q: What about the Activity [3] of the same molecule?
A: The Activity was “inactive”.

Q: And the Activity (SK-MEL-28 [4])?
A: Its Activity is “Active”.

Q: And the Activity (SK-MEL-28 [5])?
A: The Activity was “Active”.

Q: For `CCN(CC)c1ccc2nc3c4ccccc4/c(=N\CCCCCC(=O)NCCNC(=O)c4cc(Oc5ccc(NC(=O)Nc6ccc(Cl)c(C(F)(F)F)c6)cc5)ccn4)cc-3sc2c1`, which Activity [1] is on record?
A: Its Activity is “Active”.

Q: What about the Activity [2] of the same molecule?
A: Its Activity is “Active”.

Q: What about the Activity [3] of the same molecule?
A: The Activity was “inactive”.

Q: What about the Activity (SK-MEL-28 [4]) of the same molecule?
A: Its Activity is “Active”.

Q: What about the Activity (SK-MEL-28 [5]) of the same molecule?
A: Its Activity is “Active”.
